# Measured values: US20190300868A1, “COMPOSITIONS AND METHODS FOR CRISPR-BASED SCREENING” (The Regents of the University of California, priority 2016, published 2019)
# Positions count from the first letter of the chain named.
# B1: cr2: sgRNA constant region, combination of 3, 5, 9, 15, SEQ ID NO: 25 (nucleic acid)
# chain: GTTTGAGAGCTAAGCAGAAAGCTGCATAGCAAGTTCAAATAAGGCTAGTCCGTACACAACTTGAAAAAGTGGCAGCCGAGTCGGCTGCTTTTTTT
# modifications: expressed or natural sequence
# B2: cr3: sgRNA constant region, combination of 2, 4, 10, 14, SEQ ID NO: 26 (nucleic acid)
# chain: B1 chain with G5C, G17C, A20G, G21A, C22G, C36G, A54T, C55T, G75C, C85G
# modifications: expressed or natural sequence
# Assays:
# K562 cells = assay: Viability of cells loaded onto the device after chemical treatment (epistasis experiment); format: cell-based, human
# Method: (§1) For the perturb-seq epistasis experiment, seven three-guide vectors targeting every possible combination of ATF6, IRE1α, and PERK as well as two independent three-guide vectors with three negative control guide RNAs and different barcodes were individually packaged into lentiviruses. Freshly produced (i.e. not frozen) lentiviruses were spinfected into cBA007 cells (at 33° C. for 2 h at 1000×g) in media supplemented with 8 μg/mL polybrene. The virus was removed by centrifugation and cells were resuspended in fresh media. Three days after infection, transduction efficiencies of 5-10% were measured by flow cytometry. Cells were combined into a pool with equal numbers of transduced (BFP+) cells for each vector (resulting in 2-fold excess of negative control vectors) and the combined cells were then sorted on a BD 63 FACS Aria2 to near purity. To limit heterogenous effects of cell microenvironments caused by cell settling, the sorted cells were grown with continuous agitation on an orbital shaker. Five days after infection, the pooled and sorted cells were split into three populations, which were treated as follows: 1) DMSO control treatment for 6 hr; 2) treatment with 4 μg/mL tunicamycin for 6 hr; and 3) treatment with 100 nM thapsigargin for 4 hr. […]
# [1] = tested on: K562 cells with dCas9-KRAB; assay: Single-cell RNA-seq cell cycle analysis of thapsigargin-treated cells; format: cell-based, human; conditions: thapsigargin treatment, UPR epistasis experiment
# Method: as §1, with “purity.” for “purity. To limit heterogenous effects of cell microenvironments caused by cell settling, the sorted cells were grown with continuous agitation on an orbital shaker. Five days after infection, the pooled and sorted cells were split into three populations, which were treated as follows: 1) DMSO control treatment for 6 hr; 2) treatment with 4 μg/mL tunicamycin for 6 hr; and 3) treatment with 100 nM thapsigargin for 4 hr.”
# Single-cell analysis in FIG. 3 A population consisting of cells treated with 100 nM thapsigargin in each of our 8 genetic backgrounds was formed, along with DMSO-treated control cells. As outlined in the “Low cell count/inviable cell removal” section, cells with substantially lower than average UMI counts or that scored strongly for inviability markers from analysis were removed, as these groups partitioned away from the rest of the population in preliminary analyses. […]
# CHOP mRNA = assay: RT-qPCR of CHOP mRNA in sgRNA-transduced cells +/- thapsigargin; format: cell-based, human; conditions: cells transduced with SEC61A1-, SEC61B-, or SEC61G-targeting sgRNAs; 0.5 μM Tg for 1.5 hours
# Method: RT-qPCR and semi-quantitative PCR for XBP1 mRNA splicing Cells were harvested and total RNA was isolated using TRIzol® Reagent (ThermoFisher Scientific, 15596-018) and Phase Lock Gel tubes (VWR, 10052-170) or NucleoSpin® RNA (Macherey-Nagel, 67 740955.50) essentially according to manufacturers' instructions. RNA prepared by TRIzol® extraction was treated with TURBO™ DNase (ThermoFisher Scientific). RNA was converted to cDNA using SuperScript® II or SuperScript® III Reverse Transcriptase (ThermoFisher Scientific) under standard conditions with oligo(dT) primers or random hexamers with or without RNaseOUT™ Recombinant Ribonuclease Inhibitor (ThermoFisher Scientific). Quantitative PCR reactions were prepared with 1× master mix containing 1× Colorless GoTaq® Reaction Buffer (Promega, M792A), MgCl2 (0.7 mM), dNTPs (0.2 mM each), primers (0.75 μM each), and 1000× SYBR Green with GoTaq® DNA polymerase (Promega, M830B) in 22 μL reactions. Reactions were run on a LightCycler® 480 Instrument (Roche). Semi-quantitative XBP1-specific PCR reactions were prepared with 2 μL of cDNA diluted 1:10 using a master mix containing 0.9× Colorless GoTaq® Reaction Buffer (Promega, M792A), dNTPs (0.23 mM each), primers (0.45 μM each) with GoTaq® DNA polymerase (Promega, M830B) in 22.1 μL reactions. […]
# [2] = tested on: mCherry reporter of IRE1α activation; assay: UPRE mCherry / EF1α GFP reporter in K562 reporter cells (cBA011), flow cytometry; format: cell-based, human; conditions: K562 reporter cells (cBA011) treated with tunicamycin
# [3] = tested on: genomically integrated GFP; assay: GFP knockdown by sgRNA expression vectors, flow cytometry; format: cell-based, human; conditions: paired with EGFP-NT2 protospacer; cr2 from mU6, cr3 from hU6 promoter
# mRFP = assay: E. coli CRISPRi reporter strain, knockdown of mRFP by constant region variants; format: cell-based; conditions: mRFP-targeting protospacer
# From the text: Design and cloning of constant region variants for testing in E. coli. Constant region bases to mutate were identified by inspection of the crystal structure of Cas9 bound to guide RNA and target DNA (FIG. 9D, PDB ID codes 4OO8, 4UN3, 4ZT0 (Nishimasu et al. 2014, Anders et al. 2014, Jiang et al. 2015)). […] If applicable, sequence conservation patterns of the base in crRNAs/tracrRNAs of Streptococcus species and previous reports of constant regions carrying changes at the base (Briner et al. 2014, Dang et al. 2015) were used to determine the type of mutation. In this fashion, 15 constant region variants with mutations in different parts of the constant region were designed (FIG. 2D). The most diverse constant region variants cr2 and cr3 were designed by combining multiple individual mutations (FIG. 2D). To rapidly assess the activity of the variant constant regions, the variants were fused to a mRFP-targeting guide RNA (mRFP-NT1, sequence […] (SEQ ID NO: 36)) (Qi et al. 2013) and tested in an E. coli CRISPRi reporter strain for knockdown of mRFP (see below). To eliminate variability from copy number variation, guide RNAs were cloned into a plasmid for site-specific integration into the E. coli genome at attL and expressed from single copy from an IPTG-inducible PLlacO-1 promoter (Lutz, Bujard 1997). […]
molecule,measurement,setting,value
C/C=C(/C)C(=O)O[C@H]1C(C)=C2[C@H]([C@@H]1OC(=O)CCCCCCC)[C@@](C)(OC(C)=O)C[C@H](OC(=O)CCC)[C@@]1(O)[C@H]2OC(=O)[C@@]1(C)O [thapsigargin],viable cells loaded onto the device,"K562 cells; human, 4 hr, 100 nM",85.3%
same,cell cycle effect,[1],PERK-dependent cell cycle arrest in G1
same,CHOP expression,CHOP mRNA,CHOP upregulation
tunicamycin,XBP1-dependent mCherry induction,[2],≤ 16 fold
same,induction of GFP (EF1a promoter control reporter),[2],no similar induction
same,viable cells loaded onto the device,K562 cells; 4 μg/mL tunicamycin for 6 hr or 100 nM thapsigargin for 4 hr,87.9%
B1,GFP depletion in K562 cells,[3],indistinguishable from that of the Perturb-seq vector
same,function of constant region in bacteria,mRFP,functional in bacteria
B2,GFP depletion in K562 cells,[3],indistinguishable from that of the Perturb-seq vector
same,function of constant region in bacteria,mRFP,functional in bacteria
